Measured values from patent publication US20230102554A1 (GB002, INC., priority 2019, published 2023).

Tests used:
[1] = target: T1, Human PDGFRα, cytoplasmic domain (GST-PDGFRα) (Homo sapiens, UniProt P16234); assay: Human PDGFRα biochemical inhibition assay (off-chip Mobility Shift Assay)
T1 construct: made in house

[2] = target: T2, Human PDGFRβ, cytoplasmic domain (GST-PDGFRβ) (Homo sapiens, UniProt P09619); assay: Human PDGFRβ biochemical inhibition assay (off-chip Mobility Shift Assay)
T2 construct: made in house
Outline: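 GST-tagged cytoplasmic domain (aa 557-1106) from baculovirus was incubated 1 h at room temperature with compound, CSKtide, ATP at Km and Mg²⁺ in HEPES buffer, pH 7.5. Phosphorylated and unphosphorylated peptide were separated by off-chip mobility shift, and the product ratio P/(P+S) gave percent inhibition.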

T2 sequence (P09619 with tags, fused parts or gaps): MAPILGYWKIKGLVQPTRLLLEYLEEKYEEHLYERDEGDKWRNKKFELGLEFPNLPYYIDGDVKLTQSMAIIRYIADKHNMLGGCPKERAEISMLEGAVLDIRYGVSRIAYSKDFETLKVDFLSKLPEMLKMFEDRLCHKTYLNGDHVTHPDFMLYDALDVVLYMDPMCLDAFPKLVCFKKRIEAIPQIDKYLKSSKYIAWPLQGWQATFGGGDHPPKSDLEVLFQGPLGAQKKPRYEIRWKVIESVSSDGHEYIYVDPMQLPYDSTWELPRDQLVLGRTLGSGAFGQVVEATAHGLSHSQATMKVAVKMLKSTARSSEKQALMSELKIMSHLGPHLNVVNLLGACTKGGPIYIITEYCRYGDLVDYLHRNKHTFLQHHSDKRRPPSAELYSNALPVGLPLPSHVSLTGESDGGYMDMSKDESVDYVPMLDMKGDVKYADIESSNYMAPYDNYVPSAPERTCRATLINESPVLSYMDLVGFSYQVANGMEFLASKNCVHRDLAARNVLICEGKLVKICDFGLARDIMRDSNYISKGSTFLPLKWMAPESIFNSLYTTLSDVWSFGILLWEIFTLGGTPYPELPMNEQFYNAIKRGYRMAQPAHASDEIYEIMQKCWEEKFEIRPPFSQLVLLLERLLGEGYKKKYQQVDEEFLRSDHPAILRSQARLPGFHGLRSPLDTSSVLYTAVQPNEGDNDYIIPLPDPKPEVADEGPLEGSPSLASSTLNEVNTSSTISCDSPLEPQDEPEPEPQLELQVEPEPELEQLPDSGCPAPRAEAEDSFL
T1 sequence (P16234 550-1089 T674I): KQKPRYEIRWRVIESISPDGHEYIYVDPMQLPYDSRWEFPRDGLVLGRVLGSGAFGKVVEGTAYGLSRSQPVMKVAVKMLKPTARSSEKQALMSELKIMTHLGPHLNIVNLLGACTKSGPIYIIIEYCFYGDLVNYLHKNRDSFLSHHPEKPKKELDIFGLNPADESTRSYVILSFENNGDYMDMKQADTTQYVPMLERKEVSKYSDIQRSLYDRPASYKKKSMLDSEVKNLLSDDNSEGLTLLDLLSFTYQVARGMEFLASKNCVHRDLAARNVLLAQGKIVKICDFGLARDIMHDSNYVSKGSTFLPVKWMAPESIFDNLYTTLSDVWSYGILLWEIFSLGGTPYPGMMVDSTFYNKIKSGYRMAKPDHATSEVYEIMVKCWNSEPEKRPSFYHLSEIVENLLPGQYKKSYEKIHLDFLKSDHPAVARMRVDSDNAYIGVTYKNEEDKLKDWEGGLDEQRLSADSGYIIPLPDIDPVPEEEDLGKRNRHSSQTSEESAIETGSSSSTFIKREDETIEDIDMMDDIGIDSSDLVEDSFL

Compound: C[C@H](Nc1cnc2cnn(C)c2n1)c1cccc(NC(=O)c2ccc3ncn(C)c3c2)c1 [Compound 73, (S)-1-methyl-N-(3-(1-((1-methyl-1H-pyrazolo[3,4-b]pyrazin-6-yl)amino)ethyl)phenyl)-1H-benzo[d]imidazole-6-carboxamide]
- IC50 [1]: < 300 nM
- IC50 [2]: < 300 nM

Compound: Cc1cc(C(=O)Nc2cccc([C@H](C)Nc3cnc4cnn(C)c4n3)c2)cnc1Cl [Compound 200, (S)-6-chloro-5-methyl-N-(3-(1-((1-methyl-1H-pyrazolo[3,4-b]pyrazin-6-yl)amino)ethyl)phenyl)nicotinamide]
- IC50 [1]: < 300 nM
- IC50 [2]: < 300 nM

Compound: CCn1cc2ncc(N[C@@H](C)c3cccc(NC(=O)Cc4cc(F)cc(F)c4)c3)nc2n1 [Compound 643, (S)-2-(3,5-difluorophenyl)-N-(3-(1-((2-ethyl-2H-pyrazolo[3,4-b]pyrazin-6-yl)amino)ethyl)phenyl)acetamide]
- IC50 [1]: < 300 nM
- IC50 [2]: 300 to 1000 nM

Compound: Cc1cc2ncc(N[C@@H](C)c3cc(NC(=O)c4ccc(C(F)(F)F)nc4)ccc3F)nc2s1 [Compound 615, (S)-N-(4-fluoro-3-(1-((6-methylthieno[2,3-b]pyrazin-3-yl)amino)ethyl)phenyl)-6-(trifluoromethyl)nicotinamide]
- IC50 [1]: < 300 nM
- IC50 [2]: < 300 nM

Compound: CCn1cc2ncc(N[C@@H](C)c3cc(NC(=O)Cc4ccc5c(n4)CCCC5)ccc3C)nc2n1 [Compound 728, (S)-N-(3-(1-((2-ethyl-2H-pyrazolo[3,4-b]pyrazin-6-yl)amino)ethyl)-4-methylphenyl)-2-(5,6,7,8-tetrahydroquinolin-2-yl)acetamide]
- IC50 [1]: ≥ 1000 nM
- IC50 [2]: ≥ 1000 nM

Compound: CCOc1ncc(C(=O)Nc2ccc(F)c([C@H](C)Nc3cnc4cn(CC)nc4n3)c2)cc1C [Compound 316, (S)-6-ethoxy-N-(3-(1-((2-ethyl-2H-pyrazolo[3,4-b]pyrazin-6-yl)amino)ethyl)-4-fluorophenyl)-5-methylnicotinamide]
- IC50 [1]: < 300 nM
- IC50 [2]: < 300 nM

Compound: C[C@H](Nc1cnc2ccoc2n1)c1cc(NC(=O)c2ccc(C(F)(F)F)nc2)ccc1F [Compound 617, (S)-N-(4-fluoro-3-(1-(furo[2,3-b]pyrazin-3-ylamino)ethyl)phenyl)-6-(trifluoromethyl) nicotinamide]
- IC50 [1]: < 300 nM
- IC50 [2]: < 300 nM

Compound: CCn1cc2ncc(N[C@@H](C)c3cccc(NC(=O)c4ccc(C)c(F)c4)c3)nc2n1 [Compound 344, (S)-N-(3-(1-((2-ethyl-2H-pyrazolo[3,4-b]pyrazin-6-yl)amino)ethyl)phenyl)-3-fluoro-4-methylbenzamide]
- IC50 [1]: < 300 nM
- IC50 [2]: < 300 nM

Compound: CSc1ccc(C(=O)Nc2cccc([C@H](C)Nc3cnc4cnn(C)c4n3)c2)cc1 [Compound 219, (S)-N-(3-(1-((1-methyl-1H-pyrazolo[3,4-b]pyrazin-6-yl)amino)ethyl)phenyl)-4-(methylthio)benzamide]
- IC50 [1]: < 300 nM
- IC50 [2]: < 300 nM

Compound: C[C@H](Nc1cnc2cnn(C)c2n1)c1cccc(NC(=O)[C@H]2C[C@H]2C(F)(F)F)c1 [Compound 53, (1S,2R)-N-(3-((S)-1-((1 methyl-1H-pyrazolo[3,4-d]pyrazin-6-yl)amino)ethyl)phenyl)-2-(trifluoromethyl)cyclopropane-1-carboxamide]
- IC50 [1]: ≥ 1000 nM
- IC50 [2]: ≥ 1000 nM

Compound: CCn1cc2ncc(N[C@@H](C)c3cccc(NC(=O)c4ccc(CN5CCC6(CC5)COC6)c(C)c4)c3)nc2n1 [Compound 480, (S)-4-((2-oxa-7-azaspiro[3.5]nonan-7-yl)methyl)-N-(3-(1-((2-ethyl-2H-pyrazolo[3,4-b]pyrazin-6-yl)amino)ethyl)phenyl)-3-methylbenzamide]
- IC50 [1]: < 300 nM
- IC50 [2]: 300 to 1000 nM

Compound: Cc1cc(C(=O)Nc2cccc([C@H](C)Nc3cnc4[nH]cc(C)c4n3)c2)cnc1C(F)(F)F [Compound 559, (S)-5-methyl-N-(3-(1-((7-methyl-5H-pyrrolo[2,3-b]pyrazin-2-yl)amino)ethyl)phenyl)-6-(trifluoromethyl) nicotinamide]
- IC50 [1]: < 300 nM
- IC50 [2]: < 300 nM

Compound: CCn1cc2ncc(N[C@@H](C)c3cccc(NC(=O)c4ccc(NC(C)C)nc4)c3)nc2n1 [Compound 395, (S)-N-(3-(1-((2-ethyl-2H-pyrazolo[3,4-b]pyrazin-6-yl)amino)ethyl)phenyl)-6-(isopropylamino)nicotinamide]
- IC50 [1]: < 300 nM
- IC50 [2]: 300 to 1000 nM

Compound: CCOc1ccc(C(=O)Nc2cccc([C@H](C)Nc3cnc4cnn(C)c4n3)c2)cc1C [Compound 196, (S)-4-ethoxy-3-methyl-N-(3-(1-((1-methyl-1H-pyrazolo[3,4-b]pyrazin-6-yl)amino)ethyl)phenyl)benzamide]
- IC50 [1]: < 300 nM
- IC50 [2]: < 300 nM

Compound: Cc1cc(C(=O)Nc2cccc([C@H](C)Nc3cnc4cnn(C)c4n3)c2)ccc1C#N [Compound 193, (S)-4-cyano-3-methyl-N-(3-(1-((1-methyl-1H-pyrazolo[3,4-b]pyrazin-6-yl)amino)ethyl)phenyl)benzamide]
- IC50 [1]: < 300 nM
- IC50 [2]: < 300 nM

Compound: C[C@H](Nc1cnc2cnn(C)c2n1)c1cccc(NC(=O)c2cnn(CCF)c2)c1 [Compound 154, (S)-1-(2-fluoroethyl)-N-(3-(1-((1-methyl-1H-pyrazolo[3,4-b]pyrazin-6-yl)amino)ethyl)phenyl)-1H-pyrazole-4-carboxamide]
- IC50 [1]: < 300 nM
- IC50 [2]: < 300 nM

Compound: CCn1cc2ncc(N[C@@H](C)c3cccc(NC(=O)c4cnc(C(F)(F)F)s4)c3)nc2n1 [Compound 295, (S)-N-(3-(1-((2-ethyl-2H-pyrazolo[3,4-b]pyrazin-6-yl)amino)ethyl)phenyl)-2-(trifluoromethyl)thiazole-5-carboxamide]
- IC50 [1]: < 300 nM
- IC50 [2]: < 300 nM

Compound: CCn1cc2ncc(N[C@@H](C)c3cc(NC(=O)Cc4cccc(C)c4)ccc3F)nc2n1 [Compound 634, (S)-N-(3-(1-((2-ethyl-2H-pyrazolo[3,4-b]pyrazin-6-yl)amino)ethyl)-4-fluorophenyl)-2-(m-tolyl)acetamide]
- IC50 [1]: < 300 nM
- IC50 [2]: < 300 nM

Compound: CCn1cc2ncc(N[C@@H](C)c3cccc(NC(=O)c4cnc5ccccc5c4)c3)nc2n1 [Compound 57, (S)-N-(3-(1-((2-ethyl-2H-pyrazolo[3,4-b]pyrazin-6-yl)amino)ethyl)phenyl)quinoline-3-carboxamide]
- IC50 [1]: < 300 nM
- IC50 [2]: < 300 nM

Compound: CCn1cc2ncc(N[C@@H](C)c3cccc(NC(=O)Nc4cnn(CC(C)C)c4)c3)nc2n1 [Compound 740, (S)-1-(3-(1-((2-ethyl-2H-pyrazolo[3,4-b]pyrazin-6-yl)amino)ethyl)phenyl)-3-(1-isobutyl-1H-pyrazol-4-yl)urea]
- IC50 [1]: < 300 nM
- IC50 [2]: 300 to 1000 nM

Compound: Cc1cncc(C(=O)Nc2cccc([C@H](C)Nc3cnc4cnn(C)c4n3)c2)c1 [Compound 8, (S)-5-methyl-N-(3-(1-((1-methyl-1H-pyrazolo[3,4-b]pyrazin-6-yl)amino)ethyl)phenyl)nicotinamide]
- IC50 [1]: < 300 nM
- IC50 [2]: < 300 nM

Compound: CCn1cc2ncc(N[C@@H](C)c3cc(NC(=O)c4ccc(N5CCCC5)nc4)ccc3F)nc2n1 [Compound 320, (S)-N-(3-(1-((2-ethyl-2H-pyrazolo[3,4-b]pyrazin-6-yl)amino)ethyl)-4-fluorophenyl)-6-(pyrrolidin-1-yl)nicotinamide]
- IC50 [1]: < 300 nM
- IC50 [2]: < 300 nM

Compound: CCc1ccc(CC(=O)Nc2ccc(C)c([C@H](C)Nc3cnc4cn(CC)nc4n3)c2)nc1 [Compound 713, (S)-N-(3-(1-((2-ethyl-2H-pyrazolo[3,4-b]pyrazin-6-yl)amino)ethyl)-4-methylphenyl)-2-(5-ethylpyridin-2-yl) acetamide]
- IC50 [1]: < 300 nM
- IC50 [2]: 300 to 1000 nM

Compound: Cc1cncc(C(=O)Nc2cccc([C@H](C)Nc3cnc4ccn(CCN5CCOCC5)c4n3)c2)c1 [Compound 85, (S)-5-methyl-N-(3-(1-((5-(2-morpholinoethyl)-5H-pyrrolo [2,3-b]pyrazin-3-yl)amino)ethyl)phenyl)nicotinamide]
- IC50 [1]: ≥ 1000 nM
- IC50 [2]: ≥ 1000 nM

Compound: CCn1cc2ncc(N[C@@H](C)c3cc(NC(=O)Cc4cncc(F)c4)ccc3C)nc2n1 [Compound 659, (S)-N-(3-(1-((2-ethyl-2H-pyrazolo[3,4-b]pyrazin-6-yl)amino)ethyl)-4-methylphenyl)-2-(5-fluoropyridin-3-yl) acetamide]
- IC50 [1]: < 300 nM
- IC50 [2]: < 300 nM

Compound: C[C@H](Nc1cnc2cnn(C)c2n1)c1cccc(NC(=O)c2cnc3ncn(C)c3c2)c1 [Compound 77, (S)-1-methyl-N-(3-(1-((1-methyl-1H-pyrazolo[3,4-b]pyrazin-6-yl)amino)ethyl)phenyl)-1H-imidazo[4,5-b] pyridine-6-carboxamide]
- IC50 [1]: < 300 nM
- IC50 [2]: 300 to 1000 nM

Compound: CCn1cc2ncc(N[C@@H](C)c3cccc(NC(=O)c4ccc(N5CCOCC5)c(Cl)c4)c3)nc2n1 [Compound 360, (S)-3-chloro-N-(3-(1-((2-ethyl-2H-pyrazolo[3,4-b]pyrazin-6-yl)amino)ethyl)phenyl)-4-morpholinobenzamide]
- IC50 [1]: < 300 nM
- IC50 [2]: < 300 nM

Compound: CCn1cc2ncc(N[C@@H](C)c3cccc(NC(=O)c4ccc5c(c4)CCNC5)c3)nc2n1 [Compound 66, (S)-N-(3-(1-((2-ethyl-2H-pyrazolo[3,4-b]pyrazin-6-yl)amino)ethyl)phenyl)-1,2,3,4-tetrahydroisoquinoline-6-carboxamide]
- IC50 [1]: < 300 nM
- IC50 [2]: 300 to 1000 nM

Compound: Cc1cncc(C(=O)Nc2cccc([C@H](C)Nc3cnc4ccn(C)c4c3)c2)c1 [Compound 80, (S)-5-methyl-N-(3-(1-((1-methyl-1H-pyrrolo[3,2-b]pyridin-6-yl)amino)ethyl)phenyl)nicotinamide]
- IC50 [1]: 300 to 1000 nM
- IC50 [2]: ≥ 1000 nM

Compound: [2H]C([2H])([2H])n1ncc2ncc(N[C@@H](C)c3cccc(NC(=O)c4cncc(C)c4)c3)nc21 [Compound 184, (S)-5-methyl-N-(3-(1-((1-(methyl-d3)-1H-pyrazolo[3,4-b]pyrazin-6-yl)amino)ethyl)phenyl)nicotinamide]
- IC50 [1]: < 300 nM
- IC50 [2]: < 300 nM
